In ChEMBL document CHEMBL1139559, “Radical scavenging activity of protein from tentacles of jellyfish Rhopilema esculentum” (Bioorg Med Chem Lett, 2005):
Values after ≈ are worked out from the molar mass of the structure shown.

Legend:
[1] = Effective concentration required for scavenging of hydroxyl radical generation from the tentical protein of jellyfish; type: functional, Rhopilema esculentum
[2] = Effective concentration required for scavenging of superoxide anion radical generation from the tentical protein of jellyfish; type: functional, Rhopilema esculentum

SMILES	EC50 [1] [µg/mL]	EC50 [2] [µg/mL]
OC[C@@H](O)[C@@H](O)[C@H](O)[C@H](O)CO [MANNITOL]	4536 (≈ 24900 µM)	
Cc1cc(C(C)(C)C)c(O)c(C(C)(C)C)c1 [BUTYLATED HYDROXYTOLUENE]		61 (≈ 277 µM)
Cc1c(C)c2c(c(C)c1O)CC[C@@](C)(CCC[C@H](C)CCC[C@H](C)CCCC(C)C)O2 [ALPHA-TOCOPHEROL]		88 (≈ 204 µM)
COc1ccc(O)c(C(C)(C)C)c1.COc1ccc(O)cc1C(C)(C)C [BUTYLATED HYDROXYANISOLE]		31
